Reference: patent US7030087B2, “Synthetic approach to designed chemical structures” (priority 1996, dated 2006)

B1: bactericidal/permeability increasing polypeptide (protein, UniProt P17213 32-487, looked up)
Bactericidal …: VNPGVVVRISQKGLDYASQQGTAALQKELKRIKIPDYSDSFKIKHLGKGHYSFYSMDIREFQLPSSQISMVPNVGLKFSISNANIKISGKWKAQKRFLKMSGNFDLSIEGMSISADLKLGSNPTSGKPTITCSSCSSHINSVHVHISKSKVGWLIQLFHKKIESALRNKMNSQVCEKVTNSVSSELQPYFQTLPVMTKIDSVAGINYGLVAPPATTAETLDVQMKGEFYSENHHNPPPFAPPVMEFPAAHDRMVYLGLSDYFFNTAGLVYQEAGVLKMTLRDDMIPKESKFRLTTKFFGTFLPEVAKKFPNMKIQIHVSASTPPHLSVQPTGLTFYPAVDVQAFAVLPNSSLASLFLIGMHTTGSMEVSAESNRLVGELKLDRLLLELKHSNIGPFPVELLQDIMNYIVPILVLPRVNEKLQKGFPLPTPARVQLYNVVLQPHQNFLLFGADVVYK
notes: purified in three column-chromatography steps

How the values were obtained:
[1] = tested on: endotoxin from E. coli 055:B5; assay: Limulus amoebocyte lysate assay (E-TOXATE), endotoxin neutralization; assay type: biochemical; settings: for Endotoxin Neutralization, % neutralization: 5.0 × 10^−6 M Peptide; for Endotoxin Neutralization, % neutralization / Endotoxin Neutralizing Activity, % neutralization: 0.02 U (0.2 pg) endotoxin from E. coli 055:B5; for Endotoxin Neutralizing Activity, % neutralization: 5.0 × 10^−5 M peptide
Experimental: The peptides were tested for their ability to neutralize endotoxin. Quantitative endotoxin activities for these peptides were measured by Limulus amoebocyte lysate assay.
Limulus amoebocyte lysate assay: The ability of synthetic peptides to neutralize endotoxin was detected with the E-TOXATE kit manufactured by Sigma Chemicals (St. Louis, Mo.). […] Peptide or B/PI was incubated with LPS at room temperature for 5 min in 100 ul of a 1:2 dilution of pyrogen-free saline (pH 6.4). The reaction was started by addition of 100 ul of amoebocyte lysate and the final volume was 200 ul. Assuming a 10,000 molecular weight for LPS, the approximate molar ration of B/PI:LPS at neutralization was 3000 to 1.
The peptides were tested according to the method provided above. […] BG38L was used as a positive control in these experiments.

P. aeruginosa = assay: Bactericidal activity assay; assay type: cell-based, Pseudomonas aeruginosa type 1; settings: for Bactericidal Activity, % killing: 1.2 × 10^−7 M Peptide, 5 × 105 P. aeruginosa; for Bactericidal Activity, % killing at the effective dose: at the Ed for the same peptide; for Bactericidal Activity, Ed, Effective M dose: dose at which the % in brackets was found
From the text: Bacteria: P. aeruginosa type 1 is a clinical isolate maintained in the laboratory. The isolate remains a smooth strain and was serotyped by the scheme of Homma. The Pseudomonas strain was maintained by monthly transfer on blood agar plates.
The peptides can be assayed for bactericidal activity against a variety of organisms such as Pseudomonas aeruginosa type 1, P. cepacia ATCC 25608, E. coli B, and Staphylococcus aureus 502A by standard methods.
Pseudomonas aeruginosa type 1 is a clinical isolate. The isolate remains a smooth strain and was serotyped by the scheme of Homma (Jpn. J. Exp. Med. 46:329, 1976). A rough strain, E. coli B and S. aureus 502A were obtained from Paul Quie, University of Minnesota (Minneapolis, Minn.). The characteristics of the S. aureus strain have been described by Shinefield et al. (Amer. J. Dis. Chil. 105:646, 1963). Pseudomonas cepacia ATCC 25608 can be purchased from the ATCC. S. aureus and E. coli were maintained on nutrient agar plates and the Pseudomonas strains were maintained on blood agar plates.
Pyrogen-free solutions were used throughout the assay and all methods that follow. Log phase bacteria were prepared from a culture in brain heart infusion broth (Hovde et al. Infect. Immun. 54:142–148, 1986) and bacteria were washed and resuspended in saline with adjustment to an optical density at 650 nm to provide a yield of about 3×10^8 CFU/ml. Bacteria were diluted 1:10 in 0.08M citrate phosphate buffer, pH 5.6 or pH 7.0, for use in the assay. S. aureus rapidly lost viability in the pH 5.6 buffer and was studied only at pH 7.0. Bactericidal activity was determined by dose response over peptide concentrations ranging from about […] to about 4.1×10^−9M. Bactericidal activity was determined by dose response, preferably determining LD50 by linear regression.

[2] = Table 4, dose at which the % in brackets was found

Molecule	Endotoxin Neutralization, % neutralization ([1]; Table 4)	Endotoxin Neutralization, % at the effective dose ([1]; Table 4, at the Ed)	Endotoxin Neutralization, Ed, Effective M dose [1, 2]	Bactericidal Activity, % killing (P. aeruginosa)	bactericidal activity (in words) (P. aeruginosa)	Bactericidal Activity, % killing at the effective dose (P. aeruginosa)	Bactericidal Activity, Ed, Effective M dose (P. aeruginosa)	Endotoxin Neutralizing Activity, % neutralization ([1]; Table 3)	Endotoxin Neutralization, % at the effective dose ([1]; Table 3, at the ED printed in the same cell)	Endotoxin neutralization, ED, Effective M dose ([1]; Table 3, dose at which the % in brackets was found)	approximate molar ratio B/PI:LPS at neutralization ([1]; assuming a 10,000 molecular weight for LPS)
SIQDLKVSMKLFRKQAKWKIIVKLNDGRELSLD [βpep-18]	100%	30.2%	1.2 µM	18.8, n = 1%							
SIQDLNVSMKLFRKQAKWKINVKLNDGRELSLD [βpep-4]	14.7, n = 3%			37.6, n = 3%	greatest bactericidal activity						
SIQDLNVSMXLFRKQAKWKIIVKLNDGRELSLD [βpep-20]	100%	17.1%	1.2 µM	0%		0.0%	480 nM				
SIQDLNVSMKLFRKQAKWKIILKLNDGRELSLD [βpep-15]	48.1 n = 1%			0%		23.9%	960 nM				
ANIKLSVEFKLFKRHLKWKIIFKLNDGREFSLD [βpep-13]	100%	22.5%	1.2 µM	0%		(19.8), n = 3%	960 nM				
SIQDLNLSMKLFRKQAKWKIIVKLNDGRELSLD [βpep-22]	100%	21.3%	1.2 µM	35.5, n = 3%	greatest bactericidal activity						
ANIKLSVEMKLFCY^DWKVCKHVKLNDGRELSLD [βpep-11]	100%	29.5%	1.2 µM	0%		(48.0), n = 4%	960 nM	100%	29.5%	1.2 µM	
HIKELQVRWRAQKRFLRMSIIVKLNDGRELSLD [βpep-6]	79.3, n = 3%			8.2, n = 2%							
ANIKLSVKWKAQKRFLKMSINVDLSDGRELSLD [βpep-2]	55.3, n = 5%			18.8, n = 6%							
ANIKLSVKWKAQKRFLKMSIIVKLNDGRELSLD [βpep-9]	100%	32.3%	1.2 µM	0%		(47.4), n = 11%	960 nM				
SIQDLNVSMKLFRKQAKWKILVKLNDGRELSLD [βpep-17]	100%	28.9%	1.2 µM	0%		40.1%	960 nM				
ANIKLSVEMKFFKRHLKWKIIVKLNDGRELSLD [βpep-12]	100%	29.5%	1.2 µM	0%		(49.1), n = 5%	960 nM				
KFIVTLRVIKAGPHSPTAQIIVELKNGRKLSLD [βpep-5]	70.3, n = 3%			7.4, n = 7%				70.3, n = 3%			
SIQDLNVSLKLFRKQAKWKIIVKLNDGRELSLD [βpep-21]	100%	40.3%	1.2 µM	13.0, n = 1%							
HIKELQVKMKAQKRFLKWSIIVKLNDGRELSLD [βpep-7]	77.7, n = 2%			39.1, n = 2%	greatest bactericidal activity						
ANIKLSVEMKLFCRHLKCKIIVKLNDGRELSLD [βpep-10]	100%	25.2%	1.2 µM	0%		(20.9), n = 7%	960 nM				
SIQDLNVSMKLFRKQAKWKIIVKLNDGRELSLD [βpep-1]	42.8, n = 3%			32.0, n = 3%	greatest bactericidal activity			42.8, n = 3%			
BG38: BG38L corresponds to amino acids 86–108 of B/PI; positive control (KISGKWKAQKRFLKMSGNFDLSI; UniProt P17213 117-139, looked up, fragment) [reference compound]								34.4, n = 5%			
SIQKLNVSMKLFRKQAKWKIIVKLNDGRELSLD [βpep-19]	0%	12.4%	16 µM	62.5, n = 2%	greatest bactericidal activity						
B1											3000 to 1
